Measured values reported in publication PMC12143796, “Virtual screening of a random tripeptide library for easily prepared inhibitors of insect chitinolytic enzymes” (The Cell Surface, 2025).
Residues, ends and D or L forms follow the SMILES beside them.

How the values were obtained:
Assay type in all cases: biochemical
OfChtI = molecular target: T1, OfChtI (Ostrinia furnacalis, UniProt Q2V6H4); test: fluorescence assay of released 4-methylumbelliferone; conditions: read-out: % inhibition at 1 mM
T1 construct: PDB id is that of the docking structure

OfHex1 [1] = molecular target: T2, OfHex1 (Ostrinia furnacalis, UniProt Q06GJ0); test: as above; conditions: read-out: % inhibition at 1 mM
T2 construct: PDB id is that of the docking structure
T2 sequence (Q06GJ0 23-594): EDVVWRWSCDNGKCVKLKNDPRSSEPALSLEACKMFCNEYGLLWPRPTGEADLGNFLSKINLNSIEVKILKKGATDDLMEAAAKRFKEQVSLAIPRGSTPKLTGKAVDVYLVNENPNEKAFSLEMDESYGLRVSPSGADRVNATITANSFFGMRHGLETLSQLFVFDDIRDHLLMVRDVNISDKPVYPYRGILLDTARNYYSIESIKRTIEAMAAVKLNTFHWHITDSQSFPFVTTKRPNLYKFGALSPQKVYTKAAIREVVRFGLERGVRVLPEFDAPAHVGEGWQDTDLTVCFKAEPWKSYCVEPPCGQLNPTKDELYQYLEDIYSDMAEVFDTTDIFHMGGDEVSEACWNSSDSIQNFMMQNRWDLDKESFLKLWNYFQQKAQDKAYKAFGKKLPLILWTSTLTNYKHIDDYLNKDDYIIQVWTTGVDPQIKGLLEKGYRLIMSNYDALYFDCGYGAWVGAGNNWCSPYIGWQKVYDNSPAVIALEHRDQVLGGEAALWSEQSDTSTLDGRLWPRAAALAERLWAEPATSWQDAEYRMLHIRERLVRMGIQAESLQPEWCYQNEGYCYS

OfHex1 [2] = molecular target: T2, OfHex1; test: fluorescence of released 4-methylumbelliferone; conditions: 10 μM substrate, 20 mM sodium phosphate pH 6.0, 30 °C, 30 min
OfChi-h = molecular target: T3, OfChi-h (Ostrinia furnacalis, UniProt Q4AE59); test: fluorescence assay of released 4-methylumbelliferone; conditions: read-out: % inhibition at 1 mM
T3 construct: PDB id is that of the docking structure
T3 sequence (Q4AE59 18-553): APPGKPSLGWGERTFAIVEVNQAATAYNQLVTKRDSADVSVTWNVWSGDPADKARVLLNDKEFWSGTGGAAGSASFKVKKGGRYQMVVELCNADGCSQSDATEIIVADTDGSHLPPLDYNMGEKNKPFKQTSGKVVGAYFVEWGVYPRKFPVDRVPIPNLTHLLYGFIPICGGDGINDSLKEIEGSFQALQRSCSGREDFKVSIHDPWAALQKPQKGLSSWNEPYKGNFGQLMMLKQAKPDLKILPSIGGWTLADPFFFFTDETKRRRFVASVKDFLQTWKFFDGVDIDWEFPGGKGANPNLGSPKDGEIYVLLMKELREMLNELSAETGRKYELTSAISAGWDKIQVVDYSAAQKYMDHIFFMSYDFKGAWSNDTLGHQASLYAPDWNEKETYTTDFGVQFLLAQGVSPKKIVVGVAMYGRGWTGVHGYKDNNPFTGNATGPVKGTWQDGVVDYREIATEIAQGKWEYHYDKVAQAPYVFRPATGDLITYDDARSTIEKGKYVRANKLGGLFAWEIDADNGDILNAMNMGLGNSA

T1 sequence (Q2V6H4 19-407): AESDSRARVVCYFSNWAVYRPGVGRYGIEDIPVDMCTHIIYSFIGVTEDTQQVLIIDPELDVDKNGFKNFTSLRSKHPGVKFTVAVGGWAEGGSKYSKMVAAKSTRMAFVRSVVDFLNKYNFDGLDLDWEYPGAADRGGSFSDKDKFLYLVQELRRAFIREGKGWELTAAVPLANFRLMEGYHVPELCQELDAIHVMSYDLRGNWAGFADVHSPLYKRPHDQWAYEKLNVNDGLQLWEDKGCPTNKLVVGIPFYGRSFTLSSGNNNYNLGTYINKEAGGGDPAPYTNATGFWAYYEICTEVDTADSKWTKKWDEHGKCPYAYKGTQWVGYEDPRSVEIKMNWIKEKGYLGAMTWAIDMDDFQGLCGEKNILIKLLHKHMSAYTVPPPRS

fluorescence of released 4-methylumbelliferone (OfHex1 [2]) | SMILES | inhibition at 1000 µM (OfChtI) [%] | inhibition at 1000 µM (OfHex1 [1]) [%] | inhibition at 1000 µM (OfChi-h) [%]
– | N[C@@H](Cc1ccccc1)C(=O)N1CCC[C@H]1C(=O)N[C@@H](Cc1ccc(O)cc1)C(=O)O [FPY] (H-Phe-Pro-Tyr-OH) | < 50 | < 50 | –
the substrate for OfHex1 was MU-GlcNAc | CC(=O)N[C@H]1[C@H](Oc2ccc3c(C)cc(=O)oc3c2)O[C@H](CO)[C@@H](O)[C@@H]1O [MU-GlcNAc] | – | – | –
– | NC(=O)CC[C@H](N)C(=O)N[C@@H](Cc1c[nH]c2ccccc12)C(=O)N[C@@H](Cc1c[nH]c2ccccc12)C(=O)O [QWW] (H-Gln-Trp-Trp-OH) | 55.3 | – | –
– | N[C@@H](Cc1ccc(O)cc1)C(=O)N[C@@H](Cc1ccccc1)C(=O)N1CCC[C@H]1C(=O)O [YFP] (H-Tyr-Phe-Pro-OH) | < 50 | < 50 | 14.8
